Literature values, collected in PMC4654502, “Early Gelatinase Activity Is Not a Determinant of Long-Term Recovery after Traumatic Brain Injury in the Immature Mouse” (PLoS ONE, 2015).

Columns and labels:
[1] = test system: fluid-percussion injury in adult rats; settings: cited from earlier work
HI injury in rats at p21 = test system: HI injury in rats at p21; parameters: method as in PMID 23171520; settings: i.p. 50 mg/kg at 30 min, 6 h and 12 h after HI; cited from earlier work
[2] = test system: adult models of ischemic stroke; parameters: method as in PMID 22587708; settings: cited from earlier work
TBI in adult mice = settings: 25 mg/kg; cited from earlier work
HI in p7 rat pups = settings: cited from earlier work

Structure (SMILES)	behavioral and cognitive deficits after TBI [1]	hippocampal neurons after TBI [1]	neuroprotection after HI injury (HI injury in rats at p21)	pro-MMP-9 after acute treatment (HI injury in rats at p21)	behavioral and cognitive consequences of ischemic stroke [2]	infarct volumes [2]	functional and neuropathological outcomes after TBI in adult mice (TBI in adult mice)	acute cell death after HI (HI in p7 rat pups)	ipsilateral brain tissue loss after HI (HI in p7 rat pups)
O=S(=O)(CC1CS1)c1ccc(Oc2ccccc2)cc1 (stereo not drawn) [SB-3CT]	rescued behavioral and cognitive deficits	preserved hippocampal neurons	failed to render significant neuroprotection	a reduction in pro-MMP-9	ameliorate behavioral and cognitive consequences	reduce infarct volumes	effective at improving functional and neuropathological outcomes	–	–
CNC(=O)[C@H](Cc1c[nH]c2ccccc12)NC(=O)[C@@H](CC(=O)NO)CC(C)C [GM6001]	–	–	–	–	–	–	–	amelioration of acute cell death	preservation of ipsilateral brain tissue loss
